Test results as given in PubChem BioAssay AID256 (DTP/NCI, 2004).
Values joined by “and” are separate entries in the source; they are usually repeats but may differ in a detail not shown here. Identical values can stand only once. Toxic doses and inconclusive results are not listed.

Tested on: CD2F1 mice, L1210 leukemia ip, survival T/C
Assay: NCI In Vivo Anticancer Drug Screen. Data for tumor model L1210 Leukemia (intraperitoneal) in CD2F1 (CDF1) mice
Details: higher = longer survival
Summary of the method: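 Ratio T/C, where T is the treated-group value and C the vehicle-dosed control value, from mice implanted with a transplantable tumor.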

[1] = endpoint: mean survival time, dose: 100.0 mg/kg/injection, schedule: Q01DX001 (ip), vehicle: saline
[2] = endpoint: mean survival time, dose: 200.0 mg/kg/injection, schedule: Q01DX001 (ip), vehicle: saline
[3] = endpoint: mean survival time, dose: 200.0 mg/kg/injection, schedule: Q01DX009 (ip), vehicle: saline
[4] = endpoint: mean survival time, dose: 400.0 mg/kg/injection, schedule: Q01DX001 (ip), vehicle: saline
[5] = endpoint: mean survival time, dose: 100.0 mg/kg/injection, schedule: Q01DX009 (ip), vehicle: saline with Tween-80
[6] = endpoint: mean survival time, dose: 200.0 mg/kg/injection, schedule: Q01DX009 (ip), vehicle: saline with Tween-80
[7] = endpoint: mean survival time, dose: 100.0 mg/kg/injection, schedule: Q04DX003 (ip), vehicle: saline with Tween-80
[8] = endpoint: mean survival time, dose: 200.0 mg/kg/injection, schedule: Q04DX003 (ip), vehicle: saline with Tween-80
[9] = endpoint: mean survival time, dose: 400.0 mg/kg/injection, schedule: Q01DX009 (ip), vehicle: saline with Tween-80
[10] = endpoint: mean survival time, dose: 400.0 mg/kg/injection, schedule: Q04DX003 (ip), vehicle: saline with Tween-80
[11] = endpoint: mean survival time, dose: 50.0 mg/kg/injection, schedule: Q01DX009 (ip), vehicle: saline with Tween-80

CCCCCCCCNC(=O)CC
T/C [1]: 103 % of control
T/C (endpoint: mean survival time, dose: 100.0 mg/kg/injection, schedule: Q01DX009 (ip), vehicle: saline): 94 % of control
T/C (endpoint: mean survival time, dose: 100.0 mg/kg/injection, schedule: Q04DX003 (ip), vehicle: saline): 97 % of control
T/C [2]: 100 % of control
T/C [3]: 94 % of control
T/C (endpoint: mean survival time, dose: 200.0 mg/kg/injection, schedule: Q04DX003 (ip), vehicle: saline): 101 % of control
T/C [4]: 100 % of control
T/C (endpoint: mean survival time, dose: 400.0 mg/kg/injection, schedule: Q01DX009 (ip), vehicle: saline): 92 % of control
T/C (endpoint: mean survival time, dose: 400.0 mg/kg/injection, schedule: Q04DX003 (ip), vehicle: saline): 98 % of control

O=C(Cc1ccccc1[N+](=O)[O-])NCC1(c2cccc3c2OCO3)OCCO1
T/C (endpoint: mean survival time, dose: 75.0 mg/kg/injection, schedule: Q01DX001 (ip), vehicle: other): 96 % of control
T/C (endpoint: mean survival time, dose: 150.0 mg/kg/injection, schedule: Q01DX001 (ip), vehicle: other): 91 % of control
T/C (endpoint: mean survival time, dose: 300.0 mg/kg/injection, schedule: Q01DX001 (ip), vehicle: other): 96 % of control

Cc1ccc(NC(=O)NO)cc1
T/C (endpoint: mean survival time, dose: 4.0 mg/kg/injection, schedule: Q03HX024 (ip), vehicle: saline): 95 % of control
T/C (endpoint: mean survival time, dose: 8.0 mg/kg/injection, schedule: Q03HX024 (ip), vehicle: saline): 93 % of control
T/C (endpoint: mean survival time, dose: 16.0 mg/kg/injection, schedule: Q03HX024 (ip), vehicle: saline): 101 % of control
T/C (endpoint: mean survival time, dose: 32.0 mg/kg/injection, schedule: Q03HX024 (ip), vehicle: saline): 87 % of control
T/C (endpoint: mean survival time, dose: 62.0 mg/kg/injection, schedule: Q03HX024 (ip), vehicle: saline with Tween-80): 97 % of control
T/C (endpoint: mean survival time, dose: 64.0 mg/kg/injection, schedule: Q03HX024 (ip), vehicle: saline): 93 % of control
T/C (endpoint: mean survival time, dose: 93.0 mg/kg/injection, schedule: Q03HX024 (ip), vehicle: saline with Tween-80): 99 % of control

O=C1NC(=O)c2cc(C(F)(F)F)ccc21
T/C (endpoint: mean survival time, dose: 6.25 mg/kg/injection, schedule: Q01DX009 (ip), vehicle: saline with Tween-80): 95 % of control
T/C (endpoint: mean survival time, dose: 12.5 mg/kg/injection, schedule: Q01DX009 (ip), vehicle: saline with Tween-80): 89 % of control
T/C (endpoint: mean survival time, dose: 12.5 mg/kg/injection, schedule: Q04DX003 (ip), vehicle: saline with Tween-80): 101 % of control
T/C (endpoint: mean survival time, dose: 25.0 mg/kg/injection, schedule: Q04DX003 (ip), vehicle: saline with Tween-80): 100 % of control

COc1ccc(OC)c(NC(=O)NNc2ccc([N+](=O)[O-])cc2[N+](=O)[O-])c1
T/C [5]: 88 % of control
T/C [6]: 91 % of control

N=Cc1c(O)n(C2CCCCC2)c(=O)n(C2CCCCC2)c1=O
T/C [5]: 105 % of control
T/C [7]: 95 % of control
T/C [6]: 100 % of control
T/C [8]: 96 % of control
T/C [9]: 107 % of control
T/C [10]: 96 % of control

CSC(Cl)=C(Cl)Cl
T/C (endpoint: mean survival time, dose: 25.0 mg/kg/injection, schedule: Q01DX009 (ip), vehicle: saline with Tween-80): 97 % of control
T/C [11]: 95 % of control
T/C [5]: 97 % of control

NC1=NC(=O)N2CC12 (stereo not given)
T/C (endpoint: mean survival time, dose: 12.5 mg/kg/injection, schedule: Q01DX009 (ip), vehicle: other): 100 % of control
T/C (endpoint: mean survival time, dose: 12.5 mg/kg/injection, schedule: Q01DX009 (ip), vehicle: saline): 107 % of control
T/C (endpoint: mean survival time, dose: 25.0 mg/kg/injection, schedule: Q01DX009 (ip), vehicle: other): 100 % of control
T/C (endpoint: mean survival time, dose: 25.0 mg/kg/injection, schedule: Q01DX009 (ip), vehicle: saline): 106 % of control and 110 % of control
T/C (endpoint: mean survival time, dose: 50.0 mg/kg/injection, schedule: Q01DX009 (ip), vehicle: other): 105 % of control
T/C (endpoint: mean survival time, dose: 50.0 mg/kg/injection, schedule: Q01DX009 (ip), vehicle: saline): 115 % of control and 110 % of control
T/C [3]: 156 % of control and 173 % of control

CC1(C)CCC2(CC1)CC(=O)OC2=O
T/C [5]: 109 % of control
T/C [6]: 105 % of control
T/C [9]: 100 % of control

O=C(NC(CCO)C(=O)O)OCc1ccccc1 (stereo not given)
T/C (endpoint: mean survival time, dose: 75.0 mg/kg/injection, schedule: Q04DX003 (ip), vehicle: saline): 95 % of control
T/C (endpoint: mean survival time, dose: 150.0 mg/kg/injection, schedule: Q04DX003 (ip), vehicle: saline): 98 % of control
T/C (endpoint: mean survival time, dose: 300.0 mg/kg/injection, schedule: Q04DX003 (ip), vehicle: saline): 101 % of control

CCCC/C=C/C(C)(C)O
T/C [11]: 107 % of control
T/C [5]: 103 % of control
T/C [6]: 107 % of control

COc1ccc([N+]2=Cc3cc(OC)c(OC)cc3CC2)cc1OC
T/C (endpoint: mean survival time, dose: 12.5 mg/kg/injection, schedule: Q01DX009 (ip), vehicle: water): 89 % of control
T/C (endpoint: mean survival time, dose: 25.0 mg/kg/injection, schedule: Q01DX009 (ip), vehicle: water): 94 % of control
T/C (endpoint: mean survival time, dose: 50.0 mg/kg/injection, schedule: Q01DX009 (ip), vehicle: water): 97 % of control
T/C (endpoint: mean survival time, dose: 100.0 mg/kg/injection, schedule: Q01DX009 (ip), vehicle: water): 91 % of control

CC(OC(=O)c1ccccc1)c1ccccc1 (stereo not given)
T/C [5]: 95 % of control
T/C [7]: 96 % of control
T/C [6]: 105 % of control
T/C [8]: 105 % of control
T/C [9]: 112 % of control
T/C [10]: 94 % of control

NC(N)=Nc1ccc(C(=O)Oc2ccc([N+](=O)[O-])cc2)cc1
T/C [5]: 112 % of control
T/C [6]: 102 % of control

Cc1cc(=O)[nH]c2[nH]c(=O)ccc12
T/C [1]: 100 % of control
T/C [2]: 96 % of control
T/C [4]: 96 % of control

NC(=N\O)/C(N)=N/O.[Cl][Pd][Cl]
T/C (endpoint: median survival time, dose: 3.12 mg/kg/injection, schedule: Q04DX003 (ip), vehicle: saline): 100 % of control
T/C (endpoint: median survival time, dose: 6.25 mg/kg/injection, schedule: Q04DX003 (ip), vehicle: saline): 100 % of control
T/C (endpoint: median survival time, dose: 12.5 mg/kg/injection, schedule: Q04DX003 (ip), vehicle: saline): 103 % of control
T/C (endpoint: median survival time, dose: 25.0 mg/kg/injection, schedule: Q04DX003 (ip), vehicle: saline): 100 % of control
T/C (endpoint: median survival time, dose: 50.0 mg/kg/injection, schedule: Q04DX003 (ip), vehicle: saline): 97 % of control
T/C (endpoint: median survival time, dose: 100.0 mg/kg/injection, schedule: Q04DX003 (ip), vehicle: saline): 98 % of control
T/C (endpoint: median survival time, dose: 200.0 mg/kg/injection, schedule: Q04DX003 (ip), vehicle: saline): 97 % of control

CNN(C)N=Nc1ccc(C(N)=O)cc1
T/C (endpoint: mean survival time, dose: 19.75 mg/kg/injection, schedule: Q01DX009 (ip), vehicle: Klucel (hydroxypropylcellulose) (HPC)): 110 % of control
T/C (endpoint: mean survival time, dose: 39.5 mg/kg/injection, schedule: Q01DX009 (ip), vehicle: Klucel (hydroxypropylcellulose) (HPC)): 118 % of control
T/C (endpoint: mean survival time, dose: 79.0 mg/kg/injection, schedule: Q01DX009 (ip), vehicle: Klucel (hydroxypropylcellulose) (HPC)): 93 % of control

C/C(=C/c1ccccc1)C(O)C(=O)O (stereo not given)
T/C (endpoint: mean survival time, dose: 50.0 mg/kg/injection, schedule: Q04DX003 (ip), vehicle: Klucel (hydroxypropylcellulose) (HPC)): 100 % of control
T/C (endpoint: mean survival time, dose: 200.0 mg/kg/injection, schedule: Q04DX003 (ip), vehicle: Klucel (hydroxypropylcellulose) (HPC)): 100 % of control

CC(C)(C)[CH2][Sn]([Cl])([CH2]C(C)(C)C)[CH2]C(C)(C)C
T/C (endpoint: mean survival time, dose: 3.13 mg/kg/injection, schedule: Q04DX002 (ip), vehicle: saline with Tween-80): 97 % of control
T/C (endpoint: mean survival time, dose: 6.25 mg/kg/injection, schedule: Q04DX002 (ip), vehicle: saline with Tween-80): 101 % of control
T/C (endpoint: mean survival time, dose: 12.5 mg/kg/injection, schedule: Q04DX002 (ip), vehicle: saline with Tween-80): 103 % of control
